According to patent US20150174158A1, “[…] NITRIC OXIDE FOR TREATING RESPIRATORY DISEASES” (Advanced Inhalation Therapies (AIT) Ltd., priority 2012, published 2015):

Assays:
[1] = system: bovine respiratory disease; settings: intermittent gNO; cited from earlier work
[2] = system: highly pathogenic Avian Influenza H7N3; settings: cited from earlier work
[3] = system: E. Coli; settings: 200 ppm gNO; saline; cited from earlier work
[4] = Phase I safety study: pulmonary function tests; format: in vivo, human
Procedure: After obtaining informed consent, treatment was initiated within 5 days of enrollment. Subjects were housed in a hospital ward and received 160 ppm gNO for 30 minutes every four hours (Q4h), five times a day, for five consecutive days by inhalation. Subjects returned for follow-up evaluations 3, 7 and 21 days after the final gNO administration. Subject safety was determined by monitoring vital signs, methemoglobin levels, lung function, blood chemistry, hematology, prothrombin time, inflammatory cytokine/chemokines levels and endothelial activation. These parameters were compared to baseline and at various time-points during and after gNO administration.
Subjects underwent full pulmonary function tests (PFT), including lung diffusing capacity (DLCO) by a trained technician utilizing a calibrated pulmonary function system (Jaeger MasterScreen, VIASYS Healthcare, USA) on screening and days 2, 8, 12 and 26. Spirometry test (Microloop by Micro Medical, England) was performed on days 1, 3 and 4. Effect of gNO on lung function and DLCO was determined by changes from baseline, treatment days and follow up days. […]

[5] = system: S. maltophilia; settings: 200 ppm gNO; saline; cited from earlier work
[6] = system: S. aureus (Clinical); settings: 200 ppm gNO; saline; cited from earlier work

## [N]=O [gNO, nitric oxide]
[1]
  clinical symptoms of bovine respiratory disease: decrease the clinical symptoms
[2]
  infectivity (plaque formation): capable of reducing the infectivity
[3]
  LD100: 5 h
  Latent Period: 3 h
  −2.5 Log10: 4.2 hours
[4]; during and after gNO administration
  pulmonary function tests, abnormalities: did not reveal any abnormalities
[4]; vs baseline
  DLCO, FVC, TLC and RV: did not change from baseline
[4]; vs baseline during the course of the study
  FEV1 and maximum mid-expiratory flow (MMEF): did not differ from baseline
[5]
  LD100: 4 h
  Latent Period: 2 h
  −2.5 Log10: 2.8 hours
[6]
  LD100: 4 h
  Latent Period: 3 h
  −2.5 Log10: 3.7 hours
